Laboratory results taken from the supplement of paper PMC10933113.
Structures can show the parent of a compound that is named as a salt. ± gives the uncertainty stated by the source.

Tests used:
[1] = tested on: cysteine peptide Ac-RFAACAA-COOH; assay: efficacy of cysteine peptide change (negative = depletion) (% activity); higher = less depletion; conditions: incubation time: 24 h
THP-1 = assay: efficacy of IL-8 induction relative to DMSO (% activity); higher = stronger induction; conditions: exposure time: 18 h
[2] = tested on: KeratinoSens (HaCaT ARE-luciferase) cells; assay: efficacy of ARE luciferase induction relative to DMSO (% activity over DMSO); higher = stronger induction; conditions: exposure time: 24 h
[3] = tested on: KeratinoSens (HaCaT ARE-luciferase) cells; assay: cytotoxicity AC50 (CellTiter-Fluor viability); higher = less cytotoxic; conditions: exposure time: 24 h
[4] = tested on: cysteine peptide Ac-RFAACAA-COOH; assay: AC50 of cysteine peptide concentration-response (direction given by sign of efficacy); higher = less potent; conditions: incubation time: 24 h
[5] = tested on: lysine peptide Ac-RFAAKAA-COOH; assay: efficacy of lysine peptide change (negative = depletion) (% activity); higher = less depletion; conditions: incubation time: 24 h
[6] = tested on: KeratinoSens (HaCaT ARE-luciferase) cells; assay: AC50 of Nrf2/ARE luciferase induction; higher = less potent; conditions: exposure time: 24 h

Compound	efficacy of cysteine peptide change [1]	AC50 [4] [µM]	efficacy of lysine peptide change [5]	efficacy of IL-8 induction (THP-1)	efficacy of ARE luciferase induction [2]	cytotoxicity AC50 [3] [µM]	AC50 of Nrf2/ARE luciferase induction [6] [µM]
C=CC(=O)OCCn1c(=O)n(CCOC(=O)C=C)c(=O)n(CCOC(=O)C=C)c1=O	-99.7 ± 6.5	7.11 ± 0.82	-0.37 ± 14	20.8 ± 5.9	47.2 ± 67	24.7 ± 9.8	
COc1cc(C(C)C)c2c(c1)S(=O)(=O)N(COc1cc(=O)n3cccc(OCCN4CCCCC4)c3n1)C2=O	17.7 ± 15		-2.72 ± 25	54.6 ± 30	509 ± 320		12.6
O=C(NS(=O)(=O)/C=C/c1ccccc1)c1ccc(F)cc1Cl	5 ± 8.7		67 ± 6.6	0	82.9 ± 22		38.7
O=C(NS(=O)(=O)/C=C/c1cccs1)c1ccc(F)cc1Br	-6.04 ± 5.4		49.7 ± 18	4.43 ± 7.7	56.2 ± 110		14.1
O=C1C=CC(=O)c2ccccc21 [1,4-NAPHTHOQUINONE*]	-107 ± 5.1	0.53 ± 0.2	-25.7 ± 2.1	37.7 ± 15	-40.2 ± 8.4	8.95 ± 1	
O=C(O)c1cc(O)c2ccccc2c1O [1,4-dihydroxy-2-naphthoic acid*]	-105 ± 11	4.18 ± 2.3	-107 ± 3.6	31.2 ± 8.8	-34 ± 5.3	13.7 ± 2.3	
Nc1cc(Cl)ccc1O [2-Amino-4-chlorophenol]	-103 ± 8.1	2.44 ± 1.1	-22.2 ± 9	14 ± 3	60.7 ± 16	48.3 ± 3.1	
COc1ccccc1N [2-Methoxyaniline hydrochloride]	-74 ± 18	45.5 ± 10	-4.19 ± 7.3	0	68 ± 63		
Nc1ccc2ccccc2c1 [2-Naphthylamine]	-65.5 ± 4.2	0.53 ± 0.23	-10.1 ± 12	5.33 ± 9.2	111 ± 32	70.8	
NNCc1ccccc1 [BENZYLHYDRAZINE HYDROCHLORIDE]	-43 ± 5.2	35.6 ± 4.1		3.79 ± 6.6	50.8 ± 24		
O=C1C(Cl)=C(Cl)C(=O)C(Cl)=C1Cl [Chloranil]	-73.9 ± 2.3	0.65 ± 0.34	-124 ± 7.8	25.9 ± 3.2	32.8 ± 9.5	28.2	
ClC1=C(Cl)C2(Cl)C3C(Cl)C(Cl)CC3C1(Cl)C2(Cl)Cl (centres undefined) [Chlordane]	-56.1 ± 16	50.3 ± 5.8	-2.38 ± 11	49.6 ± 10	-18.6 ± 53	41.4 ± 2.8	
COP(=S)(OC)Oc1nc(Cl)c(Cl)cc1Cl [Chlorpyrifos-methyl]	-104.3 ± 0.97	6.5 ± 1.8	32.7 ± 12	0	29.7 ± 29		

Continued, in another order:

efficacy of cysteine peptide change [1]	AC50 [4] [µM]	efficacy of lysine peptide change [5]	Compound	efficacy of IL-8 induction (THP-1)	efficacy of ARE luciferase induction [2]	cytotoxicity AC50 [3] [µM]	AC50 of Nrf2/ARE luciferase induction [6] [µM]
-94.5 ± 8	3.18 ± 0.37	-0.11 ± 21	NC(=S)NC(N)=S [2,4-Dithiobiuret]	15.5 ± 4.3	59.4 ± 25		
-96.8 ± 3.7	43.4 ± 7.4	3.75 ± 13	COc1cc(C(C)(C)C)c(O)c(C(C)(C)C)c1 [2,6-Di-tert-butyl-4-methoxyphenol]	0	17.3 ± 33		
3.66 ± 6.3		-3.82 ± 16	Cc1ccc(O)c(-n2nc3ccccc3n2)c1 [2-(2H-Benzotriazol-2-yl)-4-methylphenol]	0	95.5 ± 93		22.4
-4.29 ± 3.9		-11.9 ± 11	Nc1nnc(-c2ccc([N+](=O)[O-])o2)o1 [2-Amino-5-(5-nitro-2-furyl)-1,3,4-oxadiazole]	4.08 ± 7.1	45.2 ± 31		26.2
-84.3 ± 8.4	0.19 ± 0.07	-21.2 ± 1.8	Nc1ccc2cc3ccccc3cc2c1 [2-Aminoanthracene]	22.1 ± 0.99	25.1 ± 4.7		
-90.5 ± 15	4.03 ± 0.75	-12.3 ± 2.6	Clc1ccc2c(c1)Nc1ccccc1S2 [2-Chlorophenothiazine]	7.79 ± 8	28.3 ± 36		
-117 ± 12	10.6 ± 2.4	-108 ± 8.9	Cc1occc1S [2-Methyl-3-furanthiol]	14 ± 8.6	34.9 ± 23		
-49.4 ± 8.4	66.8 ± 29	43.7 ± 15	N#Cc1nc(Cl)c(Cl)c(Cl)c1Cl [3,4,5,6-Tetrachloro-2-pyridinecarbonitrile]	85.9 ± 32	38 ± 64	10 ± 3.6	
-93.8 ± 6.2	0.27 ± 0.14	-45.6 ± 7.5	Nc1cc(Cl)c(O)c(Cl)c1 [4-Amino-2,6-dichlorophenol]	61.6 ± 34	99.2 ± 100		
-88.2	44.7	10.3 ± 18	CC(C)(C)c1ccc(S)cc1 [4-tert-Butylbenzenethiol]	16.3 ± 5.9	28 ± 17		
-77.2 ± 7.4	33.1 ± 20	-3.52 ± 14	Cc1ccc(N)cc1O [5-Amino-2-methylphenol]	3.18 ± 5.5	59.5 ± 26		
-97.3 ± 8	0.36 ± 0.04	-144 ± 8	Oc1ccc2cc(SSc3ccc4cc(O)ccc4c3)ccc2c1 [6-Hydroxy-2-naphthyl disulfide]	52.2 ± 9.7	146 ± 38		
-104 ± 23	41.1 ± 17	-19.7 ± 2.9	CC1=C(/C=C/C(C)=C\C=C\C(C)=C\C(=O)O)C(C)(C)CCC1 [9-cis Retinoic acid]	4.41 ± 7.6	47.6 ± 16		
-71.2 ± 22	38.7 ± 6.6	3.09 ± 20	CC1=C(/C=C/C(C)=C/C=C/C(C)=C/C=O)C(C)(C)CCC1 [13-cis-Retinal (Vitamin A aldehyde)]	3.58 ± 6.2	-8.45 ± 12		
-76.1 ± 14	62.8 ± 38	21.2 ± 7.3	CC(C)=CCC/C(C)=C\CO [(2Z)-3,7-Dimethylocta-2,6-dien-1-ol]	3.59 ± 6.2	19 ± 27		
-75.7 ± 21	1.33 ± 0.83	-80.7 ± 18	O=C1c2cccc(O)c2C(=O)c2c(O)cc(CO)cc21 [Aloe-emodin]	-5.38 ± 9.3	35.9 ± 24		
-105 ± 8.9	31 ± 7.8	2.29 ± 4	Nc1cc(-c2ccncc2)c[nH]c1=O [Amrinone]	11.6 ± 10	11.6 ± 5.4		
-97 ± 11	8.35 ± 4.5	62.9 ± 22	O=[N+]([O-])c1ccc(O/N=C/c2cc(Br)c(O)c(Br)c2)c([N+](=O)[O-])c1 [Bromofenoxim]	0	12.5 ± 12	34.2 ± 2.2	
-69.9 ± 28	2.44 ± 1.8	-14.3 ± 14	Oc1c(Br)cc(Br)c2cccnc12 [Broxyquinoline]	55.7 ± 43	-33.3 ± 3	4 ± 0.46	
